In general, IC50 refers to the concentration needed to halve the response being measured.

The values that follow come from publication PMC8952293, “A Histone Deacetylase (HDAC) Inhibitor with Pleiotropic In Vitro Anti-Toxoplasma and Anti-Plasmodium Activities Controls Acute and Chronic Toxoplasma Infection in Mice” (International Journal of Molecular Sciences, 2022).

Series [1] is described as follows: SPECT/CT imaging of the iodine-125 radiotracer in infected mice. It is filed as in vivo, mouse. The procedure:
(§1) An isotopic exchange was performed to obtain the radiolabeled iodinated JF363. Briefly, 2 mg of the iodinated molecule was incubated in acetone with 3 mg of cold Na127I and 55.5 MBq of radioactive Na125I (PerkinElmer) for 1 h at 95 °C in a heat block. After evaporation of acetone, the radiotracer was solubilized in corn oil; 5% DMSO was also added to mimic the previous conditions. Quality controls were performed by TLC.
Three female CD1 mice (31.7 ± 1.3 g; Janvier Labs, Le Genest-Saint-Isle, France) and two female mice infected with T. gondii obtained as previously described (19.5 ± 2.1 g) were studied. The previous study gave the radiotracer by oral gavage (administered dose: 0.73 ± 0.25 MBq/g). Before imaging, mice were anesthetized using isoflurane (2% in a mixture of air: O2) and positioned in a thermostatic bed. Whole-body single-photon emission computerized tomography/computed tomography (SPECT/CT) acquisitions were performed 0.5, 3.5, and 24 h after injection using a dedicated system (nanoSPECT-CT; Mediso, Budapest, Hungary). First, CT and SPECT acquisitions were reconstructed and fused using Nucline software (Mediso, Budapest, Hungary). This fusion allowed drawing a volume of interest (VOI in cm^3) on selected/visible organs, and SPECT quantification based on CT was then performed using VivoQuant (InviCRO, Boston, MA, USA). Results were expressed in %ID/cm^3 or %ID/g (percentage of injected dose per cubic centimeter or gram of tissue).

The nature of series [2]: Stability of the radiolabeled compound in the medium. The series is classed as physicochemical. As to conditions: corn oil with 5% DMSO. The procedure:
as §1

For a further series, the system named is Toxoplasma. On the set-up: method as in PMID 22712598. Particulars: primary drug used to treat toxoplasmosis; cited from earlier work.
A further series has as its system Toxoplasma gondii. On the set-up: method as in PMID 20713670. Particulars: cited from earlier work.

For `COc1cc(CC(=O)Nc2ccc(C(=O)NO)cc2)ccc1I` [iodo-JF363], the SPECT quantification in series [1] (Bladder, infected mouse #2, 0.5 h pi) was found to be 5.5 %DI/cm^3; in series [1] (Bladder, infected mouse #2, 3.5 h pi), 19.1 %DI/cm^3; in series [1] (Bladder, infected mouse #2, 24 h pi), 0.6 %DI/cm^3; in series [1] (Bladder, infected mouse #3, 0.5 h pi) it was 6.4 %DI/cm^3; in series [1] (Bladder, infected mouse #3, 3.5 h pi), 8.2 %DI/cm^3; in series [1] (Bladder, infected mouse #3, 24 h pi) it was 3.9 %DI/cm^3. The SPECT quantification is recorded as 3.1 %DI/cm^3 in series [1] (Heart, infected mouse #2, 0.5 h pi); 2.1 %DI/cm^3 in series [1] (Heart, infected mouse #2, 3.5 h pi); 0.2 %DI/cm^3 in series [1] (Heart, infected mouse #2, 24 h pi); 1.0 %DI/cm^3 in series [1] (Heart, infected mouse #3, 0.5 h pi); 1.0 %DI/cm^3 in series [1] (Heart, infected mouse #3, 3.5 h pi); 0.2 %DI/cm^3 in series [1] (Heart, infected mouse #3, 24 h pi). Besides, the SPECT quantification in series [1] (Intestine, infected mouse #2, 0.5 h pi) is given as 16.7 %DI/cm^3; in series [1] (Intestine, infected mouse #2, 3.5 h pi), 13.8 %DI/cm^3; in series [1] (Intestine, infected mouse #2, 24 h pi), 0.5 %DI/cm^3; in series [1] (Intestine, infected mouse #3, 0.5 h pi), 3.8 %DI/cm^3; in series [1] (Intestine, infected mouse #3, 3.5 h pi), 4.9 %DI/cm^3; in series [1] (Intestine, infected mouse #3, 24 h pi), 1.5 %DI/cm^3. Besides, the SPECT quantification is recorded as 1.8 %DI/cm^3 in series [1] (Lungs, infected mouse #2, 0.5 h pi); 1.5 %DI/cm^3 in series [1] (Lungs, infected mouse #2, 3.5 h pi); 0.1 %DI/cm^3 in series [1] (Lungs, infected mouse #2, 24 h pi); 0.6 %DI/cm^3 in series [1] (Lungs, infected mouse #3, 0.5 h pi); 0.5 %DI/cm^3 in series [1] (Lungs, infected mouse #3, 3.5 h pi); 0.2 %DI/cm^3 in series [1] (Lungs, infected mouse #3, 24 h pi). Further, the SPECT quantification in series [1] (Mouth, infected mouse #2, 0.5 h pi) is recorded as 10.0 %DI/cm^3; in series [1] (Mouth, infected mouse #2, 3.5 h pi), 8.4 %DI/cm^3; in series [1] (Mouth, infected mouse #2, 24 h pi), 4.7 %DI/cm^3; in series [1] (Mouth, infected mouse #3, 0.5 h pi), 10.5 %DI/cm^3; in series [1] (Mouth, infected mouse #3, 3.5 h pi), 6.8 %DI/cm^3; in series [1] (Mouth, infected mouse #3, 24 h pi), 3.4 %DI/cm^3. For the same compound, the SPECT quantification came to 8.5 %DI/cm^3 in series [1] (Neck ganglia, infected mouse #2, 0.5 h pi); 9.5 %DI/cm^3 in series [1] (Neck ganglia, infected mouse #2, 3.5 h pi); 1.3 %DI/cm^3 in series [1] (Neck ganglia, infected mouse #2, 24 h pi); 4.0 %DI/cm^3 in series [1] (Neck ganglia, infected mouse #3, 0.5 h pi); 5.0 %DI/cm^3 in series [1] (Neck ganglia, infected mouse #3, 3.5 h pi); 1.1 %DI/cm^3 in series [1] (Neck ganglia, infected mouse #3, 24 h pi). Further, the SPECT quantification in series [1] (Salivary glands, infected mouse #2, 0.5 h pi) was found to be 16.7 %DI/cm^3; in series [1] (Salivary glands, infected mouse #2, 3.5 h pi), 37.6 %DI/cm^3; in series [1] (Salivary glands, infected mouse #2, 24 h pi), 3.0 %DI/cm^3; in series [1] (Salivary glands, infected mouse #3, 0.5 h pi), 8.1 %DI/cm^3; in series [1] (Salivary glands, infected mouse #3, 3.5 h pi), 20.3 %DI/cm^3; in series [1] (Salivary glands, infected mouse #3, 24 h pi) it was 3.3 %DI/cm^3. Also, the SPECT quantification in series [1] (Stomach, infected mouse #2, 0.5 h pi) turned out to be 12.1 %DI/cm^3; in series [1] (Stomach, infected mouse #2, 3.5 h pi), 17.1 %DI/cm^3; in series [1] (Stomach, infected mouse #2, 24 h pi) it was 4.2 %DI/cm^3; in series [1] (Stomach, infected mouse #3, 0.5 h pi) it was 45.0 %DI/cm^3; in series [1] (Stomach, infected mouse #3, 3.5 h pi), 42.7 %DI/cm^3; in series [1] (Stomach, infected mouse #3, 24 h pi) it was 8.9 %DI/cm^3. The SPECT quantification in series [1] (Thyroid, infected mouse #2, 0.5 h pi) is 28.9 %DI/cm^3; in series [1] (Thyroid, infected mouse #2, 3.5 h pi) it was 18.8 %DI/cm^3; in series [1] (Thyroid, infected mouse #2, 24 h pi), 26.6 %DI/cm^3; in series [1] (Thyroid, infected mouse #3, 0.5 h pi), 4.1 %DI/cm^3; in series [1] (Thyroid, infected mouse #3, 3.5 h pi) it was 9.9 %DI/cm^3; in series [1] (Thyroid, infected mouse #3, 24 h pi), 29.5 %DI/cm^3. Moreover, the “SPECT activity in neck ganglia” value is listed as ~ 1% in series [1] (both infected mice, 24 h pi); 8.5 % ID/cm^3 in series [1] (infected mouse #2, 30 min pi); 9.5 % ID/cm^3 in series [1] (infected mouse #2, 3.5 h pi); 4 % ID/cm^3 in series [1] (infected mouse #3, 30 min pi); 5 % ID/cm^3 in series [1] (infected mouse #3, 3.5 h pi). The route of elimination result in series [1] (oral gavage of the radiotracer, mice) is reported as “primarily through the urinary tract”. The “stability in the medium” value in series [2] is recorded as “good up to 72 h”.
With `CCc1nc(N)nc(N)c1-c1ccc(Cl)cc1` [pyrimethamine], in the series on Toxoplasma, the IC50 was 400 nM.
For FR235222, the “efficiency on parasite proliferation and ex vivo cyst formation” value with Toxoplasma gondii is given as “efficient in vitro”.
